From ChEMBL document CHEMBL3297661, “1-Substituted-5-[(3,5-dinitrobenzyl)sulfanyl]-1H-tetrazoles and their isosteric analogs: A new class of selective antitubercular agents active against drug-susceptible and multidrug-resistant mycobacteria” (Eur J Med Chem, 2014)
In brackets after ≈: the same amount, converted by molar mass.

Legend:
[1] = test system: Pseudomonas aeruginosa; test: Antibacterial activity against Pseudomonas aeruginosa ATCC 9027 after 48 hrs by broth microdilution method; type: functional; conditions: ATCC 9027, 48 h
[2] = test system: Candida albicans; test: Antifungal activity against Candida albicans ATCC 44859 after 24 hrs by broth microdilution method; type: functional; conditions: ATCC 44859, 24 h
[3] = test system: Candida albicans; test: Antifungal activity against Candida albicans ATCC 44859 after 48 hrs by broth microdilution method; type: functional; conditions: ATCC 44859, 48 h
[4] = test system: Candida tropicalis; test: Antifungal activity against Candida tropicalis 156 after 24 hrs by broth microdilution method; type: functional; conditions: Candida tropicalis, 156, 24 h
[5] = test system: Candida tropicalis; test: Antifungal activity against Candida tropicalis 156 after 48 hrs by broth microdilution method; type: functional; conditions: Candida tropicalis, 156, 48 h
[6] = test system: Pichia kudriavzevii; test: Antifungal activity against Candida krusei E28 after 24 hrs by broth microdilution method; type: functional; conditions: E28, 24 h
[7] = test system: Pichia kudriavzevii; test: Antifungal activity against Candida krusei E28 after 48 hrs by broth microdilution method; type: functional; conditions: E28, 48 h
[8] = test system: Nakaseomyces glabratus; test: Antifungal activity against Candida glabrata 20/I after 24 hrs by broth microdilution method; type: functional
[9] = test system: Nakaseomyces glabratus; test: Antifungal activity against Candida glabrata 20/I after 48 hrs by broth microdilution method; type: functional
[10] = test system: Trichosporon asahii; test: Antifungal activity against Trichosporon asahii 1188 after 24 hrs by broth microdilution method; type: functional; conditions: Trichosporon asahii, 1188, 24 h
[11] = test system: Trichosporon asahii; test: Antifungal activity against Trichosporon asahii 1188 after 48 hrs by broth microdilution method; type: functional; conditions: Trichosporon asahii, 1188, 48 h
[12] = test system: Aspergillus fumigatus; test: Antifungal activity against Aspergillus fumigatus 231 after 24 hrs by broth microdilution method; type: functional, organism-based; conditions: Aspergillus fumigatus, 231, 24 h
[13] = test system: Aspergillus fumigatus; test: Antifungal activity against Aspergillus fumigatus 231 after 48 hrs by broth microdilution method; type: functional, organism-based; conditions: Aspergillus fumigatus, 231, 48 h
[14] = test system: Lichtheimia corymbifera; test: Antifungal activity against Absidia corymbifera 272 after 24 hrs by broth microdilution method; type: functional, organism-based; conditions: Lichtheimia corymbifera, 272, 24 h
[15] = test system: Lichtheimia corymbifera; test: Antifungal activity against Absidia corymbifera 272 after 48 hrs by broth microdilution method; type: functional, organism-based; conditions: Lichtheimia corymbifera, 272, 48 h
[16] = test system: Trichophyton mentagrophytes; test: Antifungal activity against Trichophyton mentagrophytes 445 after 72 hrs by broth microdilution method; type: functional, organism-based; conditions: Trichophyton mentagrophytes, 445, 72 h
[17] = test system: Trichophyton mentagrophytes; test: Antifungal activity against Trichophyton mentagrophytes 445 after 120 hrs by broth microdilution method; type: functional, organism-based; conditions: Trichophyton mentagrophytes, 445, 120 h
[18] = Cytotoxicity against human HeLa cells assessed as cell viability at 30 uM after 48 hrs by MTT assay; type: cell-based; conditions: read-out: Activity
[19] = Cytotoxicity against human HuH7 cells assessed as cell viability at 30 uM after 48 hrs by MTT assay; type: cell-based, Huh-7; conditions: read-out: Activity
[20] = Cytotoxicity against human HepG2 cells assessed as cell viability at 30 uM after 48 hrs by MTT assay; type: cell-based; conditions: read-out: Activity
[21] = Cytotoxicity against MDCK2 cells assessed as cell viability at 30 uM after 48 hrs by MTT assay; type: cell-based, Canis lupus familiaris, MDCK-II; conditions: dog, read-out: Activity
[22] = test system: HeLa; test: Cytotoxicity against human HeLa cells assessed as reduction in cell viability after 48 hrs by MTT assay; type: cell-based
[23] = Cytotoxicity against human HuH7 cells assessed as reduction in cell viability after 48 hrs by MTT assay; type: cell-based; conditions: Huh-7, 48 h
[24] = Cytotoxicity against MDCK2 cells assessed as reduction in cell viability after 48 hrs by MTT assay; type: cell-based; conditions: Canis lupus familiaris, MDCK-II
[25] = test system: HepG2; test: Cytotoxicity against human HepG2 cells assessed as reduction in cell viability after 48 hrs by MTT assay; type: cell-based; conditions: HepG2, 48 h
[26] = test system: Mycobacterium tuberculosis; test: Antimycobacterial activity against Mycobacterium tuberculosis CNCTC My 331/88 after 14 days by micromethod; type: functional; conditions: CNCTC My 331/88, 336 h
[27] = test system: Mycobacterium tuberculosis; test: Antimycobacterial activity against Mycobacterium tuberculosis CNCTC My 331/88 after 21 days by micromethod; type: functional; conditions: CNCTC My 331/88, 504 h
[28] = test system: Mycobacterium avium; test: Antimycobacterial activity against Mycobacterium avium CNCTC My 330/88 after 14 days by micromethod; type: functional; conditions: CNCTC My 330/88, 336 h
[29] = test system: Mycobacterium avium; test: Antimycobacterial activity against Mycobacterium avium CNCTC My 330/88 after 21 days by micromethod; type: functional; conditions: CNCTC My 330/88, 504 h
[30] = test system: Mycobacterium kansasii; test: Antimycobacterial activity against Mycobacterium kansasii CNCTC My 235/80 after 7 days by micromethod; type: functional; conditions: CNCTC My 235/80, 168 h
[31] = test system: Mycobacterium kansasii; test: Antimycobacterial activity against Mycobacterium kansasii CNCTC My 235/80 after 14 days by micromethod; type: functional; conditions: CNCTC My 235/80, 336 h
[32] = test system: Mycobacterium kansasii; test: Antimycobacterial activity against Mycobacterium kansasii CNCTC My 235/80 after 21 days by micromethod; type: functional; conditions: CNCTC My 235/80, 504 h
[33] = test system: Mycobacterium kansasii; test: Antimycobacterial activity against Mycobacterium kansasii 6509/96 after 7 days by micromethod; type: functional; conditions: 6509/96, 168 h
[34] = test system: Mycobacterium kansasii; test: Antimycobacterial activity against Mycobacterium kansasii 6509/96 after 14 days by micromethod; type: functional; conditions: 6509/96, 336 h
[35] = test system: Mycobacterium kansasii; test: Antimycobacterial activity against Mycobacterium kansasii 6509/96 after 21 days by micromethod; type: functional; conditions: 6509/96, 504 h
[36] = test system: Staphylococcus aureus; test: Antibacterial activity against Staphylococcus aureus ATCC 6538 after 24 hrs by broth microdilution method; type: functional; conditions: ATCC 6538, 24 h
[37] = test system: Staphylococcus aureus; test: Antibacterial activity against Staphylococcus aureus ATCC 6538 after 48 hrs by broth microdilution method; type: functional; conditions: ATCC 6538, 48 h
[38] = test system: Staphylococcus aureus; test: Antibacterial activity against methicillin-resistant Staphylococcus aureus H 5996/08 after 24 hrs by broth microdilution method; type: functional; conditions: H 5996/08, 24 h
[39] = test system: Staphylococcus aureus; test: Antibacterial activity against methicillin-resistant Staphylococcus aureus H 5996/08 after 48 hrs by broth microdilution method; type: functional; conditions: H 5996/08, 48 h
[40] = test system: Staphylococcus epidermidis; test: Antibacterial activity against Staphylococcus epidermidis H 6966/08 after 24 hrs by broth microdilution method; type: functional; conditions: H 6966/08, 24 h
[41] = test system: Staphylococcus epidermidis; test: Antibacterial activity against Staphylococcus epidermidis H 6966/08 after 48 hrs by broth microdilution method; type: functional; conditions: H 6966/08, 48 h
[42] = test system: Enterococcus faecalis; test: Antibacterial activity against Enterococcus faecalis J 14365/08 after 24 hrs by broth microdilution method; type: functional; conditions: J 14365/08, 24 h
[43] = test system: Enterococcus faecalis; test: Antibacterial activity against Enterococcus faecalis J 14365/08 after 48 hrs by broth microdilution method; type: functional; conditions: J 14365/08, 48 h
[44] = test system: Escherichia coli; test: Antibacterial activity against Escherichia coli ATCC 8739 after 24 hrs by broth microdilution method; type: functional; conditions: ATCC 8739, ATCC 8739, 24 h
[45] = test system: Escherichia coli; test: Antibacterial activity against Escherichia coli ATCC 8739 after 48 hrs by broth microdilution method; type: functional; conditions: ATCC 8739, ATCC 8739, 48 h
[46] = test system: Klebsiella pneumoniae; test: Antibacterial activity against Klebsiella pneumoniae D 11750/08 after 24 hrs by broth microdilution method; type: functional; conditions: D 11750/08, 24 h
[47] = test system: Klebsiella pneumoniae; test: Antibacterial activity against Klebsiella pneumoniae D 11750/08 after 48 hrs by broth microdilution method; type: functional; conditions: D 11750/08, 48 h
[48] = test system: Klebsiella pneumoniae; test: Antibacterial activity against extended spectrum beta-lactamase producing Klebsiella pneumoniae J 14368/08 after 24 hrs by broth microdilution method; type: functional; conditions: J 14368/08, 24 h
[49] = test system: Klebsiella pneumoniae; test: Antibacterial activity against extended spectrum beta-lactamase producing Klebsiella pneumoniae J 14368/08 after 48 hrs by broth microdilution method; type: functional; conditions: J 14368/08, 48 h
[50] = test system: Pseudomonas aeruginosa; test: Antibacterial activity against Pseudomonas aeruginosa ATCC 9027 after 24 hrs by broth microdilution method; type: functional; conditions: ATCC 9027, 24 h

O=[N+]([O-])c1cc(CSc2nnnn2C2CCCCC2)cc([N+](=O)[O-])c1
IC95 [1]: > 500 µM | IC80 [2]: > 500 µM | IC80 [3]: > 500 µM | IC80 [4]: > 500 µM | IC80 [5]: > 500 µM | IC80 [6]: > 500 µM | IC80 [7]: > 500 µM | IC80 [8]: > 500 µM | IC80 [9]: > 500 µM | IC80 [10]: > 500 µM | IC80 [11]: > 500 µM | IC50 [12]: > 500 µM | IC50 [13]: > 500 µM | IC50 [14]: > 500 µM | IC50 [15]: > 500 µM | IC50 [16]: > 500 µM | IC50 [17]: > 500 µM | viability at 48 h, 30 µM [18]: 84% | viability at 48 h, 30 µM [19]: 128% | viability at 48 h, 30 µM [20]: 88% | viability at 48 h, 30 µM [21]: 98% | IC50 [22]: > 30 µM | IC50 [23]: > 30 µM | IC50 [24]: > 30 µM | IC50 [25]: > 30 µM | MIC [26]: 1 µM (≈ 0.364 µg/mL) | MIC [27]: 1 µM (≈ 0.364 µg/mL) | MIC [28]: 16 µM (≈ 5.83 µg/mL) | MIC [29]: 32 µM (≈ 11.7 µg/mL) | MIC [30]: 4 µM (≈ 1.46 µg/mL) | MIC [31]: 4 µM (≈ 1.46 µg/mL) | MIC [32]: 4 µM (≈ 1.46 µg/mL) | MIC [33]: 2 µM (≈ 0.729 µg/mL) | MIC [34]: 2 µM (≈ 0.729 µg/mL) | MIC [35]: 4 µM (≈ 1.46 µg/mL) | IC95 [36]: > 500 µM | IC95 [37]: > 500 µM | IC95 [38]: > 500 µM | IC95 [39]: > 500 µM | IC95 [40]: > 500 µM | IC95 [41]: > 500 µM | IC95 [42]: > 500 µM | IC95 [43]: > 500 µM | IC95 [44]: > 500 µM | IC95 [45]: > 500 µM | IC95 [46]: > 500 µM | IC95 [47]: > 500 µM | IC95 [48]: > 500 µM | IC95 [49]: > 500 µM | IC95 [50]: > 500 µM

O=[N+]([O-])c1cc(CSc2nnnn2-c2ccc(Cl)c(Cl)c2)cc([N+](=O)[O-])c1
IC95 [1]: > 125 µM | IC80 [2]: > 125 µM | IC80 [3]: > 125 µM | IC80 [4]: > 125 µM | IC80 [5]: > 125 µM | IC80 [6]: > 125 µM | IC80 [7]: > 125 µM | IC80 [8]: > 125 µM | IC80 [9]: > 125 µM | IC80 [10]: > 125 µM | IC80 [11]: > 125 µM | IC50 [12]: > 125 µM | IC50 [13]: > 125 µM | IC50 [14]: > 125 µM | IC50 [15]: > 125 µM | IC50 [16]: > 125 µM | IC50 [17]: > 125 µM | viability at 48 h, 30 µM [18]: 67% | viability at 48 h, 30 µM [19]: 90% | viability at 48 h, 30 µM [20]: 42% | viability at 48 h, 30 µM [21]: 53% | IC50 [22]: > 30 µM | IC50 [23]: > 30 µM | IC50 [24]: > 30 µM | IC50 [25]: 26 µM | MIC [26]: 1 µM (≈ 0.427 µg/mL) | MIC [27]: 1 µM (≈ 0.427 µg/mL) | MIC [28]: 8 µM (≈ 3.42 µg/mL) | MIC [29]: 16 µM (≈ 6.84 µg/mL) | MIC [30]: 1 µM (≈ 0.427 µg/mL) | MIC [31]: 1 µM (≈ 0.427 µg/mL) | MIC [32]: 2 µM (≈ 0.854 µg/mL) | MIC [33]: 1 µM (≈ 0.427 µg/mL) | MIC [34]: 2 µM (≈ 0.854 µg/mL) | MIC [35]: 4 µM (≈ 1.71 µg/mL) | IC95 [36]: > 125 µM | IC95 [37]: > 125 µM | IC95 [38]: > 125 µM | IC95 [39]: > 125 µM | IC95 [40]: > 125 µM | IC95 [41]: > 125 µM | IC95 [42]: > 125 µM | IC95 [43]: > 125 µM | IC95 [44]: > 125 µM | IC95 [45]: > 125 µM | IC95 [46]: > 125 µM | IC95 [47]: > 125 µM | IC95 [48]: > 125 µM | IC95 [49]: > 125 µM | IC95 [50]: > 125 µM
